The record followed here is US6083941A, “Inhibition of NMDA receptor activity by pregnenolone sulfate derivatives” (Trustees of Boston University, priority 1998, dated 2000).

For one experiment, the system named is NMDA receptor. Put plainly: Whole cell patch clamp, NMDA-induced current in cultured chick spinal cord neurons. Format: cell-based. The note with it: for average inhibition of the current induced by 30 μM NMDA: 50 μM steroid.
The next experiment deals with mice. Put plainly: Behavioral observational assessment after i.p. steroid. The experiment is classed as in vivo. The following applies: 25 mg/kg i.p.; for behavioral assessment: 30 min. after injection. On the procedure:
To test for behavioral effects, PS, 5β3αS, 5β3αHS, βE2 (17)HS, or βE2 (3)HS (7 mg/ml in DMSO) was administered to mice i.p. at 25 mg/kg (5 animals per drug group). Behavioral assessments were made 30 min. after injection using a comprehensive observational assessment of motor-affective responses, sensory-motor responses, posture, muscle tone, equilibration, CNS excitation, and autonomic function (Irwin, R. P., et al., NeuroSci. Lett., 141:30-44 (1968)). […] The latency to loss of righting reflex was 2.5±0.5 min., and the latency to regain the righting reflex was 83±11 min. The rapidity of onset argues that 5β3αHS readily crosses the blood brain barrier.

Values joined by “and” are separate entries in the source; they are usually repeats but may differ in a detail not shown here. Equal entries are not always repeated. Structures can show the parent of a compound that is named as a salt.

For the compound `CC(=O)[C@H]1CC[C@H]2[C@@H]3CC[C@@H]4C[C@H](OS(=O)(=O)O)CC[C@]4(C)[C@H]3CC[C@]12C` [5β3αS, 3α-hydroxy-5β-pregnan-20-one sulfate], the “average inhibition of the current induced by 30 μM NMDA” value in the experiment with NMDA receptor (in the absence of glycine) was 49.1±3.4%; with NMDA receptor (with added 10 μM glycine), 51.3±3.5%. Moreover, in the experiment with NMDA receptor (100 μM steroid applied with NMDA, holding potential -70 mV, sulfate), the “inhibition of the response to 30 μM NMDA” value was 66% and 66.1±2.7%. For the same compound, the “average inhibition of the NMDA-induced current” value worked out at 62.0±2.8% in the experiment with NMDA receptor (100 μM steroid, holding potential +50 mV) and 63.2±2.7% in the experiment on NMDA receptor (100 μM steroid, holding potential -70 mV, voltage dependence test). The “maximal inhibition of the 30 μM NMDA response” value in the experiment with NMDA receptor (curve-fit analysis) is recorded as 101.1%. In addition, the “NMDA nH in the presence of steroid” value in the experiment with NMDA receptor (in the presence of 50 μM 5β3αS) was 1.46. Moreover, the EC50 (usually the concentration needed to bring the measured effect to its halfway point) in the experiment with NMDA receptor (read-out: EC50 for inhibition of the 30 μM NMDA response, concentration-response curve, curve-fit, 30 μM NMDA, sulfate) is 62 µM and 62.1 µM. Also, the “direct response to steroid applied alone” value with NMDA receptor (steroid alone) is “did not produce any direct response”. For the same compound, the “behavioral assessment” value in the experiment with mice was “very minor behavioral impairment”.
As to `CC(=O)[C@H]1CC[C@H]2[C@@H]3CC[C@@H]4C[C@H](OC(=O)CCC(=O)O)CC[C@]4(C)[C@H]3CC[C@]12C` [5β3αHS, 3α-hydroxy-5β-pregnan-20-one hemisuccinate], in the experiment with mice, the “latency to loss of righting reflex” value came out at 2.5 ± 0.5 min, the “latency to regain the righting reflex” value came to 83 ± 11 min and the “behavioral assessment” value is recorded as “lost virtually all muscle tone”.
Take `CC(=O)C1CCC2C3CC=C4CC(OS(=O)(=O)O)CCC4(C)C3CCC12C` (stereo not drawn) [PS, pregnenolone sulfate]: the “average NMDA response with intracellular steroid” value in the experiment on NMDA receptor (100 μM steroid in the electrode buffer) is on record as “did not differ significantly from control”. In addition, the “potentiation of the NMDA response” value in the experiment on NMDA receptor (100 μM steroid in the presence of 10 μM arachidonic acid) is given as 182±25%; in the experiment on NMDA receptor (100 μM steroid in the presence of 200 μM 5β3βS), “still evident”; in the experiment on NMDA receptor (100 μM steroid, in the presence of 100 μM spermine) it was 178±12%; in the experiment on NMDA receptor (after approximately 1 hour of exposure to 10 mM DTT) it was 161±12%. Further, the “potentiation of the NMDA induced current” value in the experiment on NMDA receptor (100 μM steroid, after about 1 hour of 4 mM DTT) worked out at 165±26%. For the same compound, the “potentiation of the response to 30 μM NMDA” value in the experiment with NMDA receptor (100 μM steroid, in the absence of spermine) is 150±14%. The “potentiation of the 30 μM NMDA response” value in the experiment with NMDA receptor (after DTT plus NEM treatment) was 103±23%. Also, the “potentiation of the NMDA response by extracellularly applied steroid” value is on record as 158±24% with NMDA receptor (in the absence of intracellular PS) and 152±23% with NMDA receptor (in the presence of intracellular PS (100 μM)). Also, the “behavioral assessment” value with mice is given as “unaffected except for a single decreased score on locomotor activity”.
